molecular target: T1, nuclear factor-kappa B (NF-kB)-inducing kinase (NIK) (Homo sapiens, UniProt Q99558); assay: NIK Enzyme Inhibition Assay (Transcreener ADP assay); type: biochemical; settings: purified NIK 0.2-1 nM, 10 uM ATP, fluorescence polarization, Morrison's quadratic equation; read-out: inhibitory value (Ki) for NIK
T1 construct: made in house; host or cells: baculovirus-infected insect cells
T1 sequence (Q99558 whole entry): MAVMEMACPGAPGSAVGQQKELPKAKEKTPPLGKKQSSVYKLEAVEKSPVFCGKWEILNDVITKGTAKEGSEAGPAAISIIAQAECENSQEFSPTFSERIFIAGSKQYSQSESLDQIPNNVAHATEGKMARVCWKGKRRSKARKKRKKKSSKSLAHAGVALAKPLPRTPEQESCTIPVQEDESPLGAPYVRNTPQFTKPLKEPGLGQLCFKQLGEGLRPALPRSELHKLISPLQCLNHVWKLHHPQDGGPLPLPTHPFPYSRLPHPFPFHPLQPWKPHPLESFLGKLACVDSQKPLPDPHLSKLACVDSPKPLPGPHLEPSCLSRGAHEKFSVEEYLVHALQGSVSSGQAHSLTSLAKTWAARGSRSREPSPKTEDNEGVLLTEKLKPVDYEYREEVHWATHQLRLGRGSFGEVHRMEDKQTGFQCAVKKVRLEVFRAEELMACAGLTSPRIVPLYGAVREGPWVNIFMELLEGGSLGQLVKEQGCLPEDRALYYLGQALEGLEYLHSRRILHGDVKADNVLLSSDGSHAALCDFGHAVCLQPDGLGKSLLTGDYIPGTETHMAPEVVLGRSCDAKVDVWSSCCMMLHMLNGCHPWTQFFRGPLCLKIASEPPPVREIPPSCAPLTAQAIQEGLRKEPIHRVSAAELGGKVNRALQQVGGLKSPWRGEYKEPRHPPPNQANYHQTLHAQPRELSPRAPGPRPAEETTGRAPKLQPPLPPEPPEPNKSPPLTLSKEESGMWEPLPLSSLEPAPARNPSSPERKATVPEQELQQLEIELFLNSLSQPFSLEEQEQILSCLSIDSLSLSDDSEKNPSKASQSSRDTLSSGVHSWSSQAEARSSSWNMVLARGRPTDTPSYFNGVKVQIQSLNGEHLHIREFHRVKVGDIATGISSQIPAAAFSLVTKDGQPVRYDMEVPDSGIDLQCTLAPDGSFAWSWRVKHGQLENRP

SMILES	Ki [nM]
CC(O)(C#Cc1ccc2c(CO)nn(-c3ccnc(N)n3)c2c1)c1ncccn1 (stereo not drawn) [Example T1.1-61, 4-[1-(2-aminopyrimidin-4-yl)-3-(hydroxymethyl)indazol-6-yl]-2-pyrimidin-2-yl-but-3-yn-2-ol]	6
Cc1nc2ccc(C#CC(C)(O)c3ncccn3)cc2n1-c1ncnc(N)n1 (stereo not drawn) [Example T1.1-62, 4-[3-(4-amino-1,3,5-triazin-2-yl)-2-methyl-benzimidazol-5-yl]-2-pyrimidin-2-yl-but-3-yn-2-ol]	6
CC(O)(C#Cc1ccc2c(C(=O)N3CC4(COC4)C3)nn(-c3ccnc(N)n3)c2c1)c1ncccn1 (stereo not drawn) [Example T1.1-63, [1-(2-aminopyrimidin-4-yl)-6-(3-hydroxy-3-pyrimidin-2-yl-but-1-ynyl)indazol-3-yl]-(2-oxa-6-azaspiro[3.3]heptan-6-yl)methanone]	6
CN(C)C(=O)c1nn(-c2ccnc(N)n2)c2cc(C#CC(C)(O)c3ncccn3)ccc12 (stereo not drawn) [Example T1.1-64, 1-(2-aminopyrimidin-4-yl)-6-(3-hydroxy-3-pyrimidin-2-yl-but-1-ynyl)-N,N-dimethyl-indazole-3-carboxamide]	6
Cc1nc([C@](C)(O)C#Cc2ccc3c(CN4CC(F)(F)C4)nn(-c4ccnc(N)n4)c3c2)no1 [Example T1.1-65, (2R)-4-[1-(2-aminopyrimidin-4-yl)-3-[(3,3-difluoroazetidin-1-yl)methyl]indazol-6-yl]-2-(5-methyl-1,2,4-oxadiazol-3-yl)but-3-yn-2-ol]	7
CC(O)(C#Cc1ccc2c(C(=O)N3CC4CC3CO4)nn(-c3ccnc(N)n3)c2c1)c1ncccn1 (stereo not drawn) [Example T1.1-66, [1-(2-aminopyrimidin-4-yl)-6-(3-hydroxy-3-pyrimidin-2-yl-but-1-ynyl)indazol-3-yl]-(2-oxa-5-azabicyclo[2.2.1]heptan-5-yl)methanone]	7
CC(C)(O)c1nn(-c2ccnc(N)n2)c2cc(C#CC3(O)CCc4cccnc43)ccc12 (stereo not drawn) [Example T1.1-67, 7-[2-[1-(2-aminopyrimidin-4-yl)-3-(1-hydroxy-1-methyl-ethyl)indazol-6-yl]ethynyl]-5,6-dihydrocyclopenta[b] pyridin-7-ol]	8
Cc1nc([C@](C)(O)C#Cc2ccc3c(C(=O)N4CCC(F)CC4)nn(-c4nc(N)ncc4Cl)c3c2)no1 [Example T1.1-68, [1-(2-amino-5-chloro-pyrimidin-4-yl)-6-[(3R)-3-hydroxy-3-(5-methyl-1,2,4-oxadiazol-3-yl)but-1-ynyl]indazol-3-yl]-(4-fluoro-1-piperidyl)methanone]	9
CC1CN(C(=O)c2nn(-c3ccnc(N)n3)c3cc(C#CC(C)(O)c4ncccn4)ccc23)CC(C)O1 (stereo not drawn) [Example T1.1-69, [1-(2-aminopyrimidin-4-yl)-6-(3-hydroxy-3-pyrimidin-2-yl-but-1-ynyl)indazol-3-yl]-(2,6-dimethylmorpholin-4-yl) methanone]	9
Cc1cc(C(C)(O)C#Cc2ccc3nc(OCC4COC(C)(C)O4)n(-c4ccnc(N)n4)c3c2)no1 (stereo not drawn) [Example T1.1-70, 4-[3-(2-aminopyrimidin-4-yl)-2-[(2,2-dimethyl-1,3-dioxolan-4-yl)methoxy]benzimidazol-5-yl]-2-(5-methylisoxazol-3-yl)but-3-yn-2-ol]	9
Cc1nc([C@](C)(O)C#Cc2ccc3c(C(=O)N4CCCCC4)nn(-c4nc(N)ncc4Cl)c3c2)no1 [Example T1.1-71, [1-(2-amino-5-chloro-pyrimidin-4-yl)-6-[(3R)-3-hydroxy-3-(5-methyl-1,2,4-oxadiazol-3-yl)but-1-ynyl]indazol-3-yl]-(1-piperidyl)methanone]	10
CC(O)(C#Cc1ccc2nc(OC3COC3)n(-c3ccnc(N)n3)c2c1)c1ncccn1 (stereo not drawn) [Example T1.1-72, 4-[3-(2-aminopyrimidin-4-yl)-2-(oxetan-3-yloxy)benzimidazol-5-yl]-2-pyrimidin-2-yl-but-3-yn-2-ol]	12
Cc1nn(-c2ccnc(N)n2)c2cc(C#CC(C)(O)c3cc[nH]n3)ccc12 (stereo not drawn) [Example T1.1-73, 4-[1-(2-aminopyrimidin-4-yl)-3-methyl-indazol-6-yl]-2-(1H-pyrazol-3-yl)but-3-yn-2-ol]	12
CC1CN(C(=O)c2nn(-c3ccnc(N)n3)c3cc(C#CC(C)(O)c4ncccn4)ccc23)CC(C)O1 (stereo not drawn) [Example T1.1-74, [1-(2-aminopyrimidin-4-yl)-6-(3-hydroxy-3-pyrimidin-2-yl-but-1-ynyl)indazol-3-yl]-(2,6-dimethylmorpholin-4-yl) methanone]	13
CC(O)(C#Cc1ccc2c(C(=O)N3CCOCC3)nn(-c3ccnc(N)n3)c2c1)CF (stereo not drawn) [Example T1.1-75, [1-(2-aminopyrimidin-4-yl)-6-(4-fluoro-3-hydroxy-3-methyl-but-1-ynyl)indazol-3-yl]-morpholino-methanone]	14
Cc1nn(-c2ccnc(N)n2)c2cc(C#CC(C)(O)c3cocn3)ccc12 (stereo not drawn) [Example T1.1-76, 4-[1-(2-aminopyrimidin-4-yl)-3-methyl-indazol-6-yl]-2-oxazol-4-yl-but-3-yn-2-ol]	16
CC(O)(C#Cc1ccc2c(CN3CCOCC3)nn(-c3ccnc(N)n3)c2c1)c1ncccn1 (stereo not drawn) [Example T1.1-78, 4-[1-(2-aminopyrimidin-4-yl)-3-(morpholinomethyl)indazol-6-yl]-2-pyrimidin-2-yl-but-3-yn-2-ol]	20

SMILES	Ki [nM]
Cc1cc(C(C)(O)C#Cc2ccc3c(C(NC4CCCC4)C4CC4)nn(-c4ccnc(N)n4)c3c2)no1 (stereo not drawn) [Example T1.1-79, 4-[1-(2-aminopyrimidin-4-yl)-3-[(cyclopentylamino)-cyclopropyl-methyl]indazol-6-yl]-2-(5-methyl-isoxazol-3-yl)but-3-yn-2-ol]	20
Cc1nc([C@](C)(O)C#Cc2ccc3c(c2)n(-c2ccnc(N)n2)c(=O)n3CC2CC2)no1 [Example T1.1-81, 3-(2-aminopyrimidin-4-yl)-1-(cyclopropylmethyl)-5-[(3R)-3-hydroxy-3-(5-methyl-1,2,4-oxadiazol-3-yl)but-1-ynyl] benzimidazol-2-one]	24
Cc1noc(C(C)(O)C#Cc2ccc3c(C(=O)N(C)C)nn(-c4ccnc(N)n4)c3c2)n1 (stereo not drawn) [Example T1.1-82, 1-(2-aminopyrimidin-4-yl)-6-[3-hydroxy-3-(3-methyl-1,2,4-oxadiazol-5-yl)but-1-ynyl]-N,N-dimethyl-indazole-3-carboxamide]	25
Cn1cnc(C(C)(O)C#Cc2ccc3c(C(=O)N4CCOCC4)nn(-c4ccnc(N)n4)c3c2)n1 (stereo not drawn) [Example T1.1-83, [1-(2-aminopyrimidin-4-yl)-6-[3-hydroxy-3-(1-methyl-1,2,4-triazol-3-yl)but-1-ynyl]indazol-3-yl]-morpholino-methanone]	25
COCc1cc(C(C)(O)C#Cc2ccc3c(C(=O)N4CCOCC4)nn(-c4ccnc(N)n4)c3c2)no1 (stereo not drawn) [Example T1.1-84, [1-(2-aminopyrimidin-4-yl)-6-[3-hydroxy-3-[5-(methoxymethyl)isoxazol-3-yl]but-1-ynyl]indazol-3-yl]-morpholino-methanone]	27
Cc1cc(C(C)(O)C#Cc2ccc3c(C(NC4CCCC4)C4CC4)nn(-c4ccnc(N)n4)c3c2)no1 (stereo not drawn) [Example T1.1-85, 4-[1-(2-aminopyrimidin-4-yl)-3-[(cyclopentylamino)-cyclopropyl-methyl]indazol-6-yl]-2-(5-methyl-isoxazol-3-yl)but-3-yn-2-ol]	27
Nc1nccc(-n2nc(C(=O)N3CCOCC3)c3ccc(C#CC(O)(CF)CF)cc32)n1 [Example T1.1-86, [1-(2-aminopyrimidin-4-yl)-6-[4-fluoro-3-(fluoromethyl)-3-hydroxy-but-1-ynyl]indazol-3-yl]-morpholino-methanone]	31
Cn1cc(-c2cnc(N)nc2-n2ncc3ccc(C#CC(C)(C)O)cc32)cn1 [Example T1.1-87, 4-[1-[2-amino-5-(1-methyl-pyrazol-4-yl)pyrimidin-4-yl]indazol-6-yl]-2-methyl-but-3-yn-2-ol]	39
Cc1cc([C@@](C)(O)C#Cc2ccc3c(C(=O)N4CCOCC4)nn(-c4ccnc(N)n4)c3c2)no1 [Example T1.1-88, [1-(2-aminopyrimidin-4-yl)-6-[(3S)-3-hydroxy-3-(5-methylisoxazol-3-yl)but-1-ynyl]indazol-3-yl]-morpholino-methanone]	46
CN1CCN(C(=O)c2nn(-c3ccnc(N)n3)c3cc(C#CC(C)(O)c4ncccn4)ccc23)CC1 (stereo not drawn) [Example T1.1-89, [1-(2-aminopyrimidin-4-yl)-6-(3-hydroxy-3-pyrimidin-2-yl-but-1-ynyl)indazol-3-yl]-(4-methylpiperazin-1-yl)methanone]	52
Cc1nn(-c2ccnc(N)n2)c2cc(C#CC(C)(O)c3nccn3C)ccc12 (stereo not drawn) [Example T1.1-90, 4-[1-(2-aminopyrimidin-4-yl)-3-methyl-indazol-6-yl]-2-(1-methyl-imidazol-2-yl)but-3-yn-2-ol]	54
Cc1cnc(C(C)(O)C#Cc2ccc3c(C)nn(-c4ccnc(N)n4)c3c2)cn1 (stereo not drawn) [Example T1.1-91, 4-[1-(2-aminopyrimidin-4-yl)-3-methyl-indazol-6-yl]-2-(5-methyl-pyrazin-2-yl)but-3-yn-2-ol]	69
CC(C)(O)C#Cc1ccc2cnn(-c3nc(N)ncc3-c3cn[nH]c3)c2c1 [Example T1.1-92, 4-[1-[2-amino-5-(1H-pyrazol-4-yl)pyrimidin-4-yl]indazol-6-yl]-2-methyl-but-3-yn-2-ol]	70
Cc1cc(-n2nc(C)c3ccc(C#C[C@@](C)(O)c4noc(C)n4)cc32)nc(N)n1 [Example T1.1-93, (2R)-4-[1-(2-amino-6-methyl-pyrimidin-4-yl)-3-methyl-indazol-6-yl]-2-(5-methyl-1,2,4-oxadiazol-3-yl)but-3-yn-2-ol]	78
Cc1cc(-n2nc(C)c3ccc(C#CC(C)(O)c4ncccn4)cc32)nc(N)n1 (stereo not drawn) [Example T1.1-94, 4-[1-(2-amino-6-methyl-pyrimidin-4-yl)-3-methyl-indazol-6-yl]-2-pyrimidin-2-yl-but-3-yn-2-ol]	85
Cn1ccc(C(C)(O)C#Cc2ccc3c(C(C)(C)O)nn(-c4ccnc(N)n4)c3c2)n1 (stereo not drawn) [Example T1.1-95, 4-[1-(2-aminopyrimidin-4-yl)-3-(1-hydroxy-1-methyl-ethyl)indazol-6-yl]-2-(1-methylpyrazol-3-yl)but-3-yn-2-ol]	87

— patent publication US8901313B2, “6,5-heterocyclic propargylic alcohol compounds and uses therefor” (Genentech, Inc., priority 2011, dated 2014)
